Here are results for six molecules from patent US20120214775A1, “Pharmaceutical Salts of 3-O-(3',3'-Dimethylsuccinyl) Betulinic Acid” (priority 2004, published 2012).

Structures are written as SMILES. Converted amounts (≈) assume the structure as drawn. “Also recorded” adds a separate entry of the source. Counter-ions that a name gives are not always drawn. Like-named read-outs stand apart in the source and are kept apart here. Where only a bound is given, the exact number is not on record here.

In data set [1] the test system is HIV-1 NL4-3. Put plainly: In vivo anti-HIV efficacy in the SCID-hu Thy/Liv mouse model of HIV infection. The following applies: for implant p24: untreated 440; for antiviral activity against NL4-3 (in words): twice-daily oral gavage at 100 and 150 mg/kg/day, SCID-hu Thy/Liv mice.
Data set [2] has as its system HIV-1 replication in H9 lymphocyte cells. The following applies: cited from earlier work; for T.I.: acutely infected H9 lymphocytes; for therapeutic index (T.I.) / EC50: H9 lymphocyte cells.
Data set [3] can be described thus: Water solubility (summary statement). It counts as physicochemical.
The nature of data set [4]: Intravenous administration of DSB in rats (reference for bioavailability). Type of data set: in vivo. As to conditions: rat, plasma, dose 10.4 mg/kg, read-out: AUCINF after intravenous administration. On the procedure: Blood samples were collected by cardiac puncture (n=2 rats/formulation/time point) at the following times: 0.25, 0.5, 1, 2, 4, 6, 12, and 24 h. Bioavailabilities of the oral formulations were calculated as the ratio of the oral dose-adjusted AUCINF assuming proportionality of the dose adjustments to the dose adjusted AUCINF reported after intravenous administration (AUCINF=63.3 μg h/mL) from a study of DSB in rats.

A short description of data set [5]: physchem. As to conditions: thermodynamic from solid, Equilibrium solubility.
Data set [6] in a line: physchem. The following applies: 25 °C.
The conditions of data set [7]: 25° C.
Data set [8] in a line: Equilibrium solubility in selected solvents. The following applies: for solubility thermodynamic at 7 days: organic solvent or mixture, equilibration 7 days.
Where [9] appears, read: once-daily oral gavage at 100 mg/kg/day.
The mark [10] stands for this setting: highest dosage level (150 mg/kg/day), twice-daily oral gavage.

As to `Nc1ccn([C@@H]2CS[C@H](CO)O2)c(=O)n1` [Group 3TC, lamivudine, reference compound], in data set [1] (setting [9]), the “HIV-1 RNA reduction versus untreated mice” value is 96%, the “thymocyte viability (live thymocytes)” value was 71% and the “implant p24” value is listed as 35 pg p24 per 10^6 cells. In addition, in data set [1] (once-daily oral gavage at 100 mg/kg/day (positive control)), the “p24 reduction versus untreated mice” value is 97%.

As a reminder, the solubility is the dissolved amount per volume that the medium holds. A lower solubility goes with a poorly soluble substance. Usually solubility (thermodynamic) stands for the concentration in solution at equilibrium with solid. On to `C=C(C)[C@H]1CC[C@]2(C(=O)O)CC[C@@]3(C)[C@H](CC[C@H]4[C@@]5(C)CC[C@H](OC(=O)CC(C)(C)C(=O)O)C(C)(C)[C@H]5CC[C@]43C)[C@H]12` [DSB, 3-O-(3′,3′-dimethylsuccinyl) betulinic acid], for which, in data set [2], the T.I. entry is recorded as “more than 970,000”. Moreover, the solubility in data set [3] was roughly 100 µg/mL (≈ 171 µM). Besides, the AUC(0-inf) in data set [4] worked out at 63300 ng·h/mL. The thermodynamic solubility at 3 days was 1500 µg/mL (≈ 2560 µM) in data set [5] (saline or isotonic) and 35.1 µg/mL (≈ 60 µM) in data set [5] (water).

The EC50 is the concentration giving half of the maximal effect. In the case of `CC(=O)[C@@H]1CC[C@]2(C(=O)O)CC[C@]3(C)[C@H](CC[C@@H]4[C@@]5(C)CC[C@H](O)C(C)(C)[C@@H]5CC[C@]43C)[C@@H]12` [platanic acid], the “therapeutic index (T.I.)” value in data set [2] is reported as 14. Further, the EC50 in data set [2] (read-out: EC50, inhibitory activity against HIV-1 replication) was 6.5 µM.

`CC(C)[C@@H]1CC[C@]2(C(=O)O)CC[C@]3(C)C(CCC4[C@@]5(C)CC[C@H](O)C(C)(C)C5CC[C@]43C)C12` (stereo partly shown) [dihydrobetulinic acid]: the “therapeutic index (T.I.)” value in data set [2] is on record as 14. In data set [2] (unit inferred, read-out: EC50, anti-HIV activity), the EC50 is 0.9 µM.

`CC(C)C1CCC2(C(=O)O)CCC3(C)C(CCC4C5(C)CCC(OC(=O)CC(C)(C)C(=O)O)C(C)(C)C5CCC43C)C12` (stereo not shown) [dihydrobetulinic acid analog]: the T.I. entry in data set [2] is “more than 400,000”.

In the case of `C=C(C)[C@@H]1CC[C@]2(C(=O)O)CC[C@]3(C)[C@H](CC[C@@H]4[C@@]5(C)CC[C@H](OC(=O)CC(C)(C)C(=O)O)C(C)(C)[C@@H]5CC[C@]43C)[C@@H]12` [DSB-(NmG)2, di-(N-methyl-D-glucamine) salt of 3-O-(3′,3′-dimethylsuccinyl) betulinic acid], the solubility is 7540 µg/mL in data set [6] (pH 9.461, aqueous buffer) and 7460 µg/mL in data set [6] (pH 10.691, aqueous buffer). For the same molecule, the visual solubility entry was “visibly soluble” in data set [7] (basic and neutral conditions); “visually insoluble” in data set [7] (strongly acid solutions). Also, the “implant p24” value in data set [1] (100 mg/kg/day, twice-daily oral gavage) turned out to be 69 pg p24 per 10^6 cells; in data set [1] (setting [10]), 14 pg p24 per 10^6 cells. The “HIV-1 RNA reduction versus untreated mice” value in data set [1] (setting [10]) came out at 97%. In addition, the “MHC-I expression on CD4+CD8+ thymocytes” value in data set [1] (highest dosage level (150 mg/kg/day), untreated 530) is reported as 250 mean fluorescence intensity. In data set [1] (highest dosage level (150 mg/kg/day, started at 300), twice-daily oral gavage, 22 days, Thy/Liv implant), the “p24 reduction versus untreated mice” value is 99%. Further, the “antiviral activity against NL4-3 (in words)” value is given as “potent, dose-dependent antiviral activity; also recorded: potent in vivo inhibitor of HIV-1 replication” in data set [1] and “potent in vivo inhibitor of HIV-1 replication” in data set [1] (listed as DSG-(NmG)2). In addition, the Equilibrium solubility in data set [8] (Deionized Water, equilibration 3 days) is given as greater than 18 mg/mL. In addition, the solubility (thermodynamic) at 3 days was 87.1 µg/mL in data set [8] (aqueous buffer, thermodynamic from solid, Equilibrium solubility, 1% DMSO in HERG Buffer, equilibration 3 days); 17.8 µg/mL in data set [8] (aqueous buffer, thermodynamic from solid, Equilibrium solubility, HERG Buffer, equilibration 3 days); 80.2 µg/mL in data set [8] (saline or isotonic, thermodynamic from solid, Equilibrium solubility, PSS (physiological salt solution), equilibration 3 days); 108 µg/mL in data set [8] (saline or isotonic, thermodynamic from solid, Equilibrium solubility, PSS + 0.1% DMSO, equilibration 3 days); 108 µg/mL in data set [8] (saline or isotonic, thermodynamic from solid, Equilibrium solubility, PSS + 1% DMSO, equilibration 3 days); greater than 18000 µg/mL in data set [8] (water, thermodynamic from solid, Equilibrium solubility, Deionized Water, equilibration 3 days). The solubility (thermodynamic) at 7 days in data set [8] (thermodynamic from solid, Equilibrium solubility, Ethanol, solid may have precipitated on transfer) is 25 mg/mL; in data set [8] (thermodynamic from solid, Equilibrium solubility, Methanol) it was 37 mg/mL; in data set [8] (thermodynamic from solid, Equilibrium solubility, PEG 400, compound may have precipitated on removal from water bath), 5.12 mg/mL; in data set [8] (thermodynamic from solid, Equilibrium solubility, Propylene glycol) it was greater than 255 mg/mL. This molecule also returned a solubility (thermodynamic) at 4 days in data set [8] (water, thermodynamic from solid, Equilibrium solubility, Deionized Water, equilibration 4 days) greater than 7000 µg/mL.
